Source: article PMC11249824 (Clinical and Translational Science, 2024)
Marks after values point to notes of the source that are not given here. Blank lines part the entries; values can stand above or below the compound they belong to.

Columns and labels:
ACKR3/CXCR7 = details: cited from earlier work
Safety and tolerability = type: in vivo, healthy male subjects; details: for Abdominal pain, number of adverse events / Abdominal pain, number of subjects / Diarrhea, number of adverse events / Diarrhea, number of subjects / Headache, number of adverse events / Headache, number of subjects / Nausea, number of adverse events / Nausea, number of subjects / Number of different TEAEs / Number of subjects with at least one TEAE / Somnolence, number of adverse events / Somnolence, number of subjects / Total number of TEAEs: N = 16
CYP3A4 = details: in vitro, preclinical observation; cited from earlier work
[1] = cited from earlier work
[2] = cited from earlier work; remark: listed apart in the source
[3] = type: in vivo, healthy male subjects
[4] = attributed to sequestration by β‐cyclodextrin; cited from earlier work
[5] = Treatment A (ACT‐1004‐1239 alone)
[6] = Treatment B2 (ACT‐1004‐1239 + itraconazole)
[7] = up to and including a dose of 200 mg
[8] = Treatment A: single oral 10 mg ACT‐1004‐1239 alone, fed, geometric mean (95% CI), N = 16

- AUC0−t [3, 8]: 300 (257, 352) ng * h/mL
- Cmax [3, 8]: 25.6 (21.1, 31.0) ng/mL
- AUC0−inf ([3]; Treatment A: single oral 10 mg ACT‐1004‐1239 alone, fed, geometric mean (95% CI), n = 10): 326 (279, 380) ^a ng * h/mL
- t max ([3]; Treatment A: single oral 10 mg ACT‐1004‐1239 alone, fed, median (range), N = 16): 2.00 (0.5, 6.0) h
- median of differences in t max (90% CI) ([3]; Treatment B2 (with itraconazole) vs Treatment A (alone), Hodges‐Lehmann estimate): 30 min
- increase of exposure to ACT‐1004‐1239 with itraconazole versus alone ([3]; concomitant multiple doses 200 mg itraconazole (CYP3A4 inhibition)): up to 2.9 fold
Compound: O=C(N[C@H]1CCN(CC2CC2)C[C@@H]1C(=O)NC1(c2ncccn2)CC1)c1cc(-c2ccc(F)cc2F)on1 [ACT‐1004‐1239]
- CXCL12 plasma concentration (target engagement) (ACKR3/CXCR7): dose‐dependent increase
- Abdominal pain, number of adverse events (Safety and tolerability; [5]): 0 nAEs
- Abdominal pain, number of subjects (Safety and tolerability; [5]): 0 n (%)
- Diarrhea, number of adverse events (Safety and tolerability; [5]): 0 nAEs
- Diarrhea, number of subjects (Safety and tolerability; [5]): 0 n (%)
- Headache, number of adverse events (Safety and tolerability; [5]): 2 nAEs
- Headache, number of subjects (Safety and tolerability; [5]): 1 (6.3) n (%)
- Nausea, number of adverse events (Safety and tolerability; [5]): 2 nAEs
- Nausea, number of subjects (Safety and tolerability; [5]): 2 (12.5) n (%)
- Number of different TEAEs (Safety and tolerability; [5]): 3 nAEs
- Number of subjects with at least one TEAE (Safety and tolerability; [5]): 3 (18.8) n (%)
- Somnolence, number of adverse events (Safety and tolerability; [5]): 1 nAEs
- Somnolence, number of subjects (Safety and tolerability; [5]): 1 (6.3) n (%)
- Total number of TEAEs (Safety and tolerability; [5]): 5 nAEs
- Abdominal pain, number of adverse events (Safety and tolerability; [6]): 1 nAEs
- Abdominal pain, number of subjects (Safety and tolerability; [6]): 1 (6.3) n (%)
- Diarrhea, number of adverse events (Safety and tolerability; [6]): 1 nAEs
- Diarrhea, number of subjects (Safety and tolerability; [6]): 1 (6.3) n (%)
- Headache, number of adverse events (Safety and tolerability; [6]): 1 nAEs
- Headache, number of subjects (Safety and tolerability; [6]): 1 (6.3) n (%)
- Nausea, number of adverse events (Safety and tolerability; [6]): 0 nAEs
- Nausea, number of subjects (Safety and tolerability; [6]): 0 n (%)
- Number of different TEAEs (Safety and tolerability; [6]): 3 nAEs
- Number of subjects with at least one TEAE (Safety and tolerability; [6]): 3 (18.8) n (%)
- Somnolence, number of adverse events (Safety and tolerability; [6]): 0 nAEs
- Somnolence, number of subjects (Safety and tolerability; [6]): 0 n (%)
- Total number of TEAEs (Safety and tolerability; [6]): 3 nAEs
- tolerability (Safety and tolerability; all treatments, 10 mg ACT‐1004‐1239 in absence and presence of itraconazole): well‐tolerated
- overall incidence of subjects with TEAEs (Safety and tolerability; in each treatment (A and B2)): 18.8%
- dependency of metabolism on CYP3A4 (CYP3A4): 94%
- contribution of elimination via M1 to drug's elimination ([1]; humans, M1 plus A1 and A2): approximately 44%
- unchanged drug recovered in excreta ([1]; oral 14C‐labeled ACT‐1004‐1239): 15%
- effect of food on exposure [2]: no effect of food
- dose dependence of exposure ([2]; dose range 1–200 mg): dose‐proportional
- absolute bioavailability ([2]; healthy subjects): 53%
- volume of distribution ([2]; healthy subjects): 183 L
- QTc liability [2, 7]: without QTc liability
- safety and tolerability [2, 7]: safe and well‐tolerated

Compound: O=C(Nc1ccc(OC(F)(F)Cl)cc1)c1cnc(N2CC[C@@H](O)C2)c(-c2ccn[nH]2)c1 [asciminib]
- decrease of exposure when given concomitantly with an itraconazole solution [4]: approximately 50%
